{
  "source": "patent US6468469B2",
  "about": "“Reuse determination for high level disinfectant” (Metrex Research Corporation, priority 2000, dated 2002)",
  "origin": "cited, not measured here",
  "system": "M. tuberculosis",
  "conditions": "alone at a concentration of up to 7.5%",
  "data": [
    {"compound": "OO", "note": "[hydrogen peroxide]", "values": [
      {"measurement": "kill of M. tuberculosis", "result": "does not kill"}
    ]}
  ]
}
